Source: patent publication US20150174144A1, “TETRACYCLINE COMPOUNDS FOR TREATING NEURODEGENERATIVE DISORDERS” (PARATEK PHARMACEUTICALS, INC., priority 2012, published 2015)
≈ marks a conversion by molar mass, not a printed value. Like-named read-outs stand apart in the source and are kept apart here. Each block holds one molecule with its values, some of them ahead of it.

Experiments:
E. coli = test: Antibacterial activity, E. coli MIC; assay type: cell-based; details: Escherichia coli; Table 8
MS = details: cited from earlier work; for % lesion reduction: gadolinium-enhancing MRI lesions
[1] = Alkylperoxy radical scavenging assay (AIPH, AE-Trolox oxidation); details: for IC50: 5 mM AIPH, 37° C., 8 minutes, read-out: IC50, inhibition of AE-Trolox oxidation (alkylperoxy radical scavenging); for Percent Trolox Activity / Trolox Equivalents: relative to Trolox
Procedure: In a separate assay, alkylperoxy radicals were generated in vitro using the radical generator AIPH (2,2′-azobis-[2-(2-imidazolyn-2-yl)-propane) and the ability of tetracyclines to scavenge these radicals was determined. […] Also, the ability of Compound 1 and minocycline to specifically scavenge peroxynitrite-carbonate radicals was determined.
In this study, alkylperoxy radicals were generated in vitro using the radical generator AIPH (2,2′-azobis-[2-(2-imidazolyn-2-yl)-propane) and the ability of tetracyclines, such as Compound 1, to scavenge these radicals was determined.
Trolox is a known scavenger of peroxyradicals. Structurally similar to a-tocopherol, Trolox reacts with peroxyradicals via a known mechanism with linear kinetics under excess oxygen conditions. In the presence of a competing antioxidant compound, the rate of Trolox oxidation will change based on the relative rate of oxidation and concentration of the competing antioxidant compound (Huang, et al., J. Agric. Food Chem. 2005, 25, 1841-1856). By measuring the effect of antioxidant concentration on the rate of degradation of Trolox, the relative antioxidant capacity of a compound can be determined. This principle is the basis of the widely used antioxidant capacity assay, ORAC (Huang, et al., J. Agric. Food Chem. 2002, 50, 1815-1821). Unlike ORAC which uses a fluorescent dye indicator, the assay described here directly measures the oxidation of the Trolox derivative, 2-aminoethyl-Trolox (AE-Trolox). This method eliminates interference of the fluorescent dye reaction by tetracycline compounds.
To the first column of a 96-well PCR plate (0.2 mL volume) was added 160 μL of TCWS. One well of the first column would equal one IC50 determination. […] To the remaining wells in columns 2-11 was added 80 μL of AET-WS. Using a multichannel pipettor, column 1 was serially diluted in 2-fold dilutions by removing 80 μL from column 1 and transferring with mixing to column 2. Column 2 was then diluted to column 3 and so on until column 11 where 80 μL of the diluted mixture was removed and discarded. Four wells of row 12 were designated as the 0 test compound/0 AIPH control to which 80 μL of AET-WS was added. One well of row 12 per test compound was designated as the 0 test compound control to which 80 μL of the AET-WS was added.
(§1) The plate was covered and incubated for 5 minutes at 37° C. upon which the reaction was initiated by addition of 20 μL of AIPH to columns 1-11 using a multichannel pipettor with mixing. The reaction was initiated similarly to the 0 test compound wells of column 12. To the 0 test compound/0 AIPH control wells was added 20 μL of PB buffer. The plate was incubated at 37° C. for 8 minutes (the reaction is linear for 10 minutes) and quenched by addition of 50 μL of AA to all wells with mixing. The plate was placed on ice for 5 minutes. Quenched assay mixtures were stable at room temperature for at least 24 hours.
Each reaction mixture was analyzed for AE-Trolox by 2D-LCMS on a Shimadzu 2010 equipped with a loading column (Shim-pack MAYI-ODS, 4.6×10 mm) and a gradient column Phenomenex Luna C18(2) column, 3 um, 4.6×50 mm. Using an automated 2-position swithching valve, samples were loaded onto the loading column by Pump C and washed for 1 minute with loading buffer. At 1 minute, the valve was switched to elution position (Position B, reversed flow through loading column) and the samples were eluted through the gradient column. The loading buffer (Buffer C) was 10% acetonitrile in water with 0.2% formic acid and the gradient buffers were water+0.2% formic acid (A buffer) and acetonitrile+0.2% formic acid (B buffer). Typical injection volumes were 30 μL.
From the TIC integration of AE-Trolox and AE-Trolox-d4, a ratio was calculated:
Ratio=AUCAE-Trolox/AUCAE-Trolox-d4
Percent inhibition of AE-Trolox oxidation (measured as disappearance of AE-Trolox) was then determined by:
% Inhibition=[1−((Ratio0−Ratiox)/(Ratioo−Ratiof))]*100

[2] = Peroxynitrite-carbonate radical scavenging assay (DHR probe); details: for IC50: Sin-1, 37° C., 8 minutes, read-out: IC50, inhibition of oxidation of DHR probe (peroxynitrite-carbonate scavenging); for Uric Acid Equivalents: relative to uric acid
Procedure: Inflammatory conditions are characterized by increasing concentrations of reactive oxygen species. In this study, the ability of Compound 1 to specifically scavenge peroxynitrite-carbonate radicals was determined.
To the first column of a 96-well PCR plate (0.2 mL volume) was added 160 μL of TCWS. One well of the first column would equal one IC50 determination. Typically, test compounds were assayed in duplicate, i.e. two wells of column 1 were filled with each TCWS. To the remaining wells in columns 2-11 was added 80 μL of DWS. Using a multichannel pipettor, column 1 was serially diluted in 2-fold dilutions by removing 80 μL from column 1 and transferring with mixing to column 2. Column 2 was then diluted to column 3 and so on until column 11 where 80 μL of the diluted mixture was removed and discarded. At least 2 wells of row 12 were designated as the 0 test compound control to which 80 μL of DWS was added. One well of row 12 per test compound was designated as the background control to which 80 μL of the TCWS was added.
as §1, with “Sin-1” for “AIPH”, “background” for “0 test compound/0 AIPH”, “PC” for “PB”
Each reaction mixture (20 μL) was analyzed for rhodamine 123 product by HPLC using a Phenomenex Luna C18(2) column, 3 um, 4.6×50 mm using an A buffer of water+0.1% TFA and a B buffer of acetonitrile+0.1% TFA and the following gradient method: […]
The absorbance at 280 nm was also recorded to ensure no co-elution of test compound peaks.
Initial examination of the background control samples at the highest test compound concentration were performed to ensure no co-elution of test compound peaks with the product rhodamine 123 at 4 minutes. If co-elution was observed, the compound was not tested until an appropriate HPLC method was developed to separate the product and test compound peaks. The rhodamine 123 AUC was then determined for each test compound concentration and the percent inhibition of rhodamine 123 fluorescence was then determined by the following equation:
% Inhibition=[(AUCo−AUCx)/AUCo]*100
Where AUCo is the AUC of the rhodamine 123 peak at 0 test compound concentration and AUCX is the AUC of the rhodamine 123 peak at each test compound concentration=x.
The standard error of the curve fit for the IC50 was also determined along with the Hill slope. The IC50 determined for uric acid was divided by the IC50 determined for each test compound to generate Uric Acid Equivalents, a measure of the peroxynitrite-carbonate radical scavenging ability relative to uric acid.
Uric Acid Equivalents=[…]

[3] = system: animal models of MS and neuroprotection; test: Accepted animal models of MS and neuroprotection (Table 2); set-up: concentration or dose not given beside the values; details: in vivo

- MIC (E. coli): 0.5 mg/L (≈ 1.13 µM)
Molecule: C[C@H]1c2cccc(O)c2C(=O)C2=C(O)[C@]3(O)C(=O)C(C(N)=O)=C(O)[C@@H](N(C)C)[C@@H]3[C@@H](O)[C@@H]21 [Doxycycline, doxycycline]

Molecule: C/C(O)=C(\C#N)C(=O)Nc1ccc(C(F)(F)F)cc1 [Teriflunomid]
- % Relapses eduction (MS; MS clinical studies): 30%
- potential side effects (MS; MS clinical studies): Mild infections, Fatigue,
- % lesion reduction (MS; MS clinical studies): 44%

- IC50 [2]: 66.4 µM
Molecule: CN(C)[C@@H]1C(O)=C(C(N)=O)C(=O)[C@@]2(O)C(O)=C3C(=O)c4c(O)cccc4C[C@H]3C[C@@H]12 [Sancycline, sancycline]
- IC50 [1]: 369 µM
- Percent Trolox Activity [1]: 2%
- Trolox Equivalents [1]: 0.02
- Uric Acid Equivalents [2]: 0.19

Molecule: COC(=O)/C=C/C(=O)OC [BG-12]
- % Relapses eduction (MS; MS clinical studies): 32%
- potential side effects (MS; MS clinical studies): Flushing
- % lesion reduction (MS; MS clinical studies): 69%

Molecule: CCN(C(=O)c1c(O)c2c(Cl)cccc2n(C)c1=O)c1ccccc1 [Laquinimod]
- % Relapses eduction (MS; MS clinical studies): 21%
- potential side effects (MS; MS clinical studies): Increase in liver enzymes
- % lesion reduction (MS; MS clinical studies): 40%

- IC50 [2]: 12.4 µM
Molecule: O=c1[nH]c(=O)c2[nH]c(=O)[nH]c2[nH]1 [Uric acid]
- Uric Acid Equivalents [2]: 1

Molecule: Natalizumab [TYSABRI ®]
- % Relapses eduction (MS; MS clinical studies): 68%
- potential side effects (MS; MS clinical studies): Liver damage, fatigue, fatal
- % lesion reduction (MS; MS clinical studies): 83%

Molecule: Cc1c(C)c2c(c(C)c1O)CCC(C)(C(=O)O)O2 (centres unmarked) [Trolox]
- IC50 [1]: 9 µM
- Percent Trolox Activity [1]: 100%
- Trolox Equivalents [1]: 1.00

Molecule: CCCCCCCCc1ccc(CCC(N)(CO)CO)cc1 [Fingolimod, 2-amino-2-[2-(4-octylphenyl)ethyl]propane-1,3-diol]
- % Inhibition Axon Loss [3]: 60%
- % Inhibition Clinical Score [3]: 89%
- % Inhibition Demyelination [3]: 69%
- % Inhibition Inflammation [3]: 59%
- % Relapses eduction (MS; MS clinical studies): 54%
- potential side effects (MS; MS clinical studies): Infections, cancer, cardiac
- % lesion reduction (MS; MS clinical studies): 30%

Molecule: Glatiramer [COPAXONE ®]
- % Inhibition Clinical Score [3]: 75%
- % Inhibition Demyelination [3]: 74%
- % Relapses eduction (MS; MS clinical studies): 30%
- % lesion reduction (MS; MS clinical studies): 65%
- potential side effects (MS; human, in vivo): Infection, shaking hands,
